Data published in the supplement of paper PMC10307832.

What was measured:
Assay in all cases: relative viability (nuclei count vs DMSO), 5 days (fraction); higher = more cells survive
[1] = compound: O=C(CCCCCCC(=O)Nc1ccccc1)NO [Vorinostat] + COc1cccc2cc(-c3nc([C@H]4CC[C@H](C(=O)O)CC4)n4ncnc(N)c34)[nH]c12 [OSI-027] (partner 0.5 µM)
In short: (§1)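 Lung cancer cell lines, seeded in 1536-well plates, were treated the following day by pin tool with a single drug or with five library-drug doses (not always all listed) in √10 steps on top of a fixed anchor-drug dose. Cells were fixed and nuclei stained in one step after 5 days, and nuclei were counted. Relative viability is the nuclei count for treated wells divided by that for vehicle wells, reported as medians of duplicate plates.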

[2] = compound: O=C(CCCCCCC(=O)Nc1ccccc1)NO [Vorinostat] + CS(=O)(=O)CCNCc1ccc(-c2ccc3ncnc(Nc4ccc(OCc5cccc(F)c5)c(Cl)c4)c3c2)o1 [Lapatinib] (partner 2 µM)
In short: as §1

[3] = compound: O=C(CCCCCCC(=O)Nc1ccccc1)NO [Vorinostat] + C[C@]1(O)C[C@@H](c2nc(-c3ccc4ccc(-c5ccccc5)nc4c3)c3c(N)nccn32)C1 [Linsitinib] (partner 1 µM)
In short: as §1

[4] = compound: O=C(CCCCCCC(=O)Nc1ccccc1)NO [Vorinostat] + Cc1nc(Nc2ncc(C(=O)Nc3c(C)cccc3Cl)s2)cc(N2CCN(CCO)CC2)n1 [Dasatinib] (partner 0.075 µM)
In short: as §1

Row | Cell Line | relative viability ([1]; first compound 0.253 µM) | relative viability ([1]; first compound 0.8 µM) | relative viability ([1]; first compound 2.53 µM) | relative viability ([1]; first compound 8 µM) | relative viability ([2]; first compound 0.253 µM) | relative viability ([2]; first compound 0.8 µM) | relative viability ([2]; first compound 2.53 µM) | relative viability ([2]; first compound 8 µM) | relative viability ([3]; first compound 0.253 µM) | relative viability ([3]; first compound 0.8 µM) | relative viability ([3]; first compound 2.53 µM) | relative viability ([3]; first compound 8 µM) | relative viability ([4]; first compound 0.253 µM) | relative viability ([4]; first compound 0.8 µM) | relative viability ([4]; first compound 2.53 µM) | relative viability ([4]; first compound 8 µM)
1 | NCI-H322M | 0.584 | 0.502 | 0.32 | 0.235 | 0.733 | 0.608 | 0.522 | 0.352 | 1.04 | 1.01 | 0.51 | 0.275 | 0.286 | 0.268 | 0.255 | 0.264
2 | NCI-H838 | 0.531 | 0.508 | 0.298 | 0.137 | 1.44 | 0.863 | 0.425 | 0.148 | 1.19 | 1.08 | 0.459 | 0.172 | 0.378 | 0.442 | 0.368 | 0.186
3 | NCI-H1734 | 0.803 | 0.672 | 0.362 | 0.137 | 1.33 | 0.993 | 0.678 | 0.162 | 0.982 | 0.856 | 0.658 | 0.133 | 0.608 | 0.624 | 0.39 | 0.111
4 | NCI-H23 | 0.595 | 0.338 | 0.329 | 0.118 | 1.24 | 1.03 | 0.344 | 0.141 | 0.866 | 0.711 | 0.21 | 0.124 | 0.922 | 0.671 | 0.41 | 0.0961
5 | NCI-H596 | 0.843 | 0.36 | 0.637 | 0.293 | 1.26 | 0.971 | 0.781 | 0.307 | 1.02 | 1.04 | 0.677 | 0.335 | 0.634 | 0.448 | 0.385 | 0.202
6 | A-427 | 0.535 | 0.281 | 0.226 | 0.105 | 1.1 | 1.05 | 0.929 | 0.23 | 1.11 | 1.08 | 0.875 | 0.17 | 0.823 | 0.565 | 0.332 | 0.133
7 | NCI-H460 | 0.821 | 0.484 | 0.0397 | 0.0148 | 1.35 | 0.742 | 0.0269 | 0.0111 | 0.902 | 0.544 | 0.0315 | 0.0069 | 0.577 | 0.423 | 0.134 | 0.0239
8 | NCI-H2085 | 0.722 | 0.463 | 0.415 | 0.205 | 0.676 | 0.608 | 0.494 | 0.278 | 0.818 | 0.804 | 0.621 | 0.243 | 0.24 | 0.252 | 0.223 | 0.225
9 | NCI-H2405 | 0.695 | 0.778 | 0.463 | 0.103 | 1.36 | 1.18 | 0.306 | 0.0576 | 1.13 | 1.09 | 0.245 | 0.0821 | 0.237 | 0.17 | 0.117 | 0.0585
10 | BEN | 0.287 | 0.24 | 0.0754 | 0.0473 | 0.819 | 0.379 | 0.151 | 0.0751 | 0.985 | 0.543 | 0.156 | 0.0466 | 0.306 | 0.233 | 0.157 | 0.06
11 | LCLC-97TM1 | 0.444 | 0.582 | 0.249 | 0.112 | – | 0.784 | 1.49 | 0.115 | – | 0.167 | 0.144 | 0.115 | 0.914 | 0.68 | 0.365 | 0.226
12 | NCI-H1651 | 1 | 0.607 | 0.195 | 0.0644 | 1.07 | 0.532 | 0.108 | 0.0671 | 1.01 | 0.762 | 0.0741 | 0.0616 | 0.415 | 0.195 | 0.0466 | 0.0608
13 | NCI-H1915 | 0.632 | 0.5 | 0.205 | 0.152 | 1.03 | 0.962 | 0.673 | 0.0743 | 1.12 | 1.03 | 0.587 | 0.113 | 0.324 | 0.24 | 0.164 | 0.108
14 | UMC-11 | 0.441 | 0.263 | 0.135 | 0.0952 | 1.05 | 0.238 | 0.137 | 0.0786 | 1 | 0.6 | 0.164 | 0.0865 | 0.423 | 0.258 | 0.121 | 0.0971
15 | NCI-H358 | 1.14 | 0.793 | 0.189 | 0.0874 | 0.642 | 0.566 | 0.276 | 0.199 | 0.969 | 0.83 | 0.219 | 0.156 | 0.182 | 0.227 | 0.0991 | 0.0768
16 | NCI-H650 | 0.514 | 0.458 | 0.175 | 0.129 | 1.15 | 0.489 | 0.196 | 0.177 | 1.13 | 0.52 | 0.205 | 0.152 | 0.475 | 0.357 | 0.196 | 0.126
17 | NCI-H2228 | 0.767 | 0.452 | 0.203 | 0.0986 | 1.34 | 0.519 | 0.261 | 0.122 | 0.805 | 0.542 | 0.425 | 0.0918 | 0.39 | 0.323 | 0.127 | 0.0817
18 | LU99A | 0.352 | 0.276 | 0.195 | 0.164 | 1.01 | 0.871 | 0.315 | 0.169 | 0.429 | 0.465 | 0.27 | 0.117 | 0.607 | 0.591 | 0.242 | 0.172
19 | NCI-H1792 | 0.776 | 0.676 | 0.511 | 0.1 | 0.964 | 0.904 | 0.907 | 0.0753 | 0.57 | 0.376 | 0.148 | 0.0672 | 0.866 | 0.921 | 0.402 | 0.126
20 | NCI-H1666 | 0.772 | 0.678 | 0.383 | 0.335 | 0.606 | 0.339 | 0.228 | 0.167 | 0.864 | 0.707 | 0.33 | 0.227 | 0.881 | 0.698 | 0.422 | 0.266
21 | COR-L 105 | 0.839 | 0.601 | 0.319 | 0.182 | 0.425 | 0.287 | 0.252 | 0.249 | 1.1 | 1.16 | 0.394 | 0.222 | 0.377 | 0.394 | 0.259 | 0.196
22 | NCI-H520 | 0.361 | 0.265 | 0.204 | 0.217 | 1.12 | 0.668 | 0.319 | 0.116 | 1.15 | 0.841 | 0.293 | 0.12 | 0.219 | 0.206 | 0.179 | 0.17
23 | NCI-H2126 | 0.761 | 0.572 | 0.506 | 0.209 | 0.75 | 0.733 | 0.562 | 0.22 | 0.581 | 0.68 | 0.456 | 0.224 | 0.608 | 0.566 | 0.216 | 0.158
24 | PC-14 | 1.13 | 0.832 | 0.0624 | 0.0451 | 0.36 | 0.251 | 0.135 | 0.0961 | 1.01 | 0.911 | 0.323 | 0.112 | 0.344 | 0.239 | 0.0451 | 0.026
25 | NCI-H2347 | 0.363 | 0.382 | 0.149 | 0.164 | 0.988 | 1.04 | 0.766 | 0.341 | 0.992 | 0.982 | 0.766 | 0.306 | 0.283 | 0.295 | 0.271 | 0.189
26 | NCI-H1975 | 0.783 | 0.609 | 0.231 | 0.121 | 1.16 | 0.787 | 0.303 | 0.117 | 0.987 | 0.8 | 0.294 | 0.145 | 0.407 | 0.32 | 0.162 | 0.0818
27 | PC-3 [JPC-3] | 0.68 | 0.727 | 0.378 | 0.175 | 0.456 | 0.441 | 0.326 | 0.252 | 0.886 | 0.938 | 0.625 | 0.281 | 1 | 1 | 0.593 | 0.227
28 | EPLC-272H | 0.272 | 0.228 | 0.175 | 0.147 | 0.788 | 0.761 | 0.278 | 0.14 | 1.17 | 1.13 | 0.361 | 0.156 | 0.428 | 0.494 | 0.151 | 0.0935
29 | NCI-H647 | 0.777 | 0.526 | 0.19 | 0.0491 | 1.49 | 0.947 | 0.163 | 0.0687 | 1.24 | 0.959 | 0.294 | 0.0525 | 0.18 | 0.233 | 0.0551 | 0.0337
30 | NCI-H661 | 0.79 | 0.665 | 0.297 | 0.245 | 0.549 | 0.682 | 0.275 | 0.161 | 0.759 | 0.752 | 0.298 | 0.184 | 1.11 | 0.791 | 0.247 | 0.223
